Results from patent US20260274810A1, “NOVEL MITOFUSIN INHIBITORS” (ALBERT EINSTEIN COLLEGE OF MEDICINE, priority 2023, published 2026).
pIC50: −log10 of the molar value. Numbered stars: 1 amine (or outer) side, 2 acyl side, 3 side chain; on linkers, the order of the positions; unused ones are H or OH. Bridge positions count the residues as written; N and C are the ends. Square brackets hold non-standard residues; d marks the D form. Peptide text beside a SMILES is read from it. I, II: the chains in the order shown. Hexamethylenediamine = C(CCCN[*:2])CCN[*:1]; Dip = N[C@H](C(=O)O)C(c1ccccc1)c1ccccc1; Chg = N[C@H](C(=O)O)C1CCCCC1; NMeA = CN[C@@H](C)C(=O)O

Columns and labels:
[1] = molecular target: T1, HR2 domain of MFN2 (Homo sapiens, UniProt O95140); experiment: Microscale thermophoresis (MST) binding
T1 construct: Human MFN2 residues 678-757 corresponding to the HR2 domain; made in house; host or cells: E. coli BL21(DE3) CodonPlus (DE3)-RIPL
T1 sequence (O95140 678-757): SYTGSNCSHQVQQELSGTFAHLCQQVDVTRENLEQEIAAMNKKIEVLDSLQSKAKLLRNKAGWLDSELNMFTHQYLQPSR
Method: Freshly purified His-tagged MFN2-HR2 domain was used for Microscale Thermophoresis (MST) binding studies. For protein labelling, a fresh stock of 5 M His-tag-RED-tris-NTA 2nd generation dye (Nanotemper) in 25 mM Hepes pH 7.5, 100 mM NaCl, 0.005% Tween-20 (assay buffer) was used to label 500 nM of MFN2-HR2 in the same buffer. The labeling reaction was incubated for 30 min at RT and centrifuged at 15.000×g at 4° C. for 10 min. Labelled protein from the supernatant was kept on ice and used immediately. Compounds were serially diluted in 100% DMSO. Immediately before mixing with labeled protein, the dilution series was transferred in assay buffer to reach 2% DMSO. 10 μl of each compound in the final series was mixed with 10 µl of labeled protein and samples were incubated for 5 min at 30° C. before MST measurement using a MonolithNT.115 instrument (Nanotemper). Peptides were diluted in assay buffer plus 2% DMSO and treated as above. […] Kd values were obtained from non-linear regression fits of normalized data to a three or four parameter logistic curve, using GraphPad Prism 9.

[2] = test system: caspase-3/7 in MEFs; experiment: Caspase-3/7 activation assay; type: cell-based, mouse; details: 6 hr
Method: Caspase-3/7 activation assay. Cells (5×10^3 cells/well) were seeded in a 96-well white plate and treated with MASM7, MFI8. Caspase 3/7 activation was measured after 6 hr by addition of the Caspase-Glo 3/7 reagent according to the manufacturer's protocol (Promega). Luminescence was detected by a F200 PRO microplate reader (TECAN). Caspase assays were performed in at least triplicate and the data normalized to vehicle-treated control wells. Dilutions of MASM7 or MFI8 were performed using a TECAN D300e Digital Dispenser from 10 mM stocks.

[3] = test system: cells; experiment: Cell death assay (Annexin V / PI); type: cell-based
Method: Cell death assay. Cells (2×10^5 cells/well) were seeded in a 6-well plate and treated with the indicated drugs for 6 hours. Cells were dissociated using Accutase (Thermo Fisher; Cat. #00-4555-56) in order to avoid accidental exposure of phosphatidylserine on the outer plasma membrane. Cell death was evaluated with Dead Cell Apoptosis Kit with Annexin V Alexa Fluor™ 488 & Propidium Iodide (Thermo Fisher; Cat. #V13241) according to manufacturer's protocol. Data was acquired by BD LSRII flow cytometer system using BD FACSDiva software. Data was analyzed by FlowJo (BD).

[4] = test system: MEFs; experiment: Mitochondrial aspect ratio (Mito AR), live cell imaging; details: for mitochondrial aspect ratio / mitochondrial fragmentation: WT cells
Method: Live cell imaging. MEFs were seeded on chamber slides (MatTek Corporation: 35 mm dishes, No. 1.5, 14 mm glass diameter) at ~70% confluence. […] Images were taken with Leica SP5 inverted confocal microscope. Data were analyzed with Image J software. >200 mitochondria were measured per condition in mitochondrial aspect ratio.
Measurement of mitochondrial aspect ratio (Mito AR). Images that depict stained mitochondria with mitotracker green were analyzed using FIJI We measured for each mitochondrion its length and width. Then, we divided the length by the width for each mitochondrion to get its mitochondrial aspect ratio. >200 mitochondria were measured per treatment.
MEFs were seeded on chamber slides (MatTek Corporation: 35 mm dishes, No. 1.5, 14 mm glass diameter) at ~70% confluence. Cells were treated with compounds. Then, cells were stained with MitoTracker Green (200 nM, Invitrogen) for 20 min at 37° C. After treatments, media was replaced with FluoroBrite™ DMEM (Invitrogen) supplemented with 10% FBS, 100 U ml^−1 penicillin/streptomycin, 2 mM L-glutamine and compound prior image acquisition. Images were taken with Leica SP5 inverted confocal microscope. Data were analyzed with Image J software. >200 mitochondria were measured per condition in mitochondrial aspect ratio. Measurement of mitochondrial aspect ratio (Mito AR). Images that depict stained mitochondria with mitotracker green were analyzed using FIJI software. Each mitochondrion was measured for its length and width. Then, the length was divided by the width for each mitochondrion to get its mitochondrial aspect ratio. >200 mitochondria were measured per treatment.

[5] = test system: MFNs; details: reported small molecule; cited from earlier work
[6] = mouse liver microsome assay; type: in vitro ADME; details: FIG. 2

For `Cc1cccc(NC(C)c2ccccc2O)c1C` (stereo not shown) [MFI22], the “binding to the HR2 domain of MFN2” value [1] was “did not demonstrate measurable binding”, the caspase-3/7 activity [2] was “did not increase caspase-3/7 activity” and the “sensitization to BV6-induced cell death” value ([3]; combined with BV6) was “did not sensitize cells to BV6 treatment”. For the same compound, the “mitochondrial aspect ratio / mitochondrial fragmentation” value [4] was “significantly reduced the capacity of the compound to promote mitochondrial fragmentation”.
For `CN[C@@H](C)C(=O)N[C@H](C(=O)N1CCC[C@H]1C(=O)N[C@H](C(=O)NCCCCCCNC(=O)[C@@H](NC(=O)[C@@H]1CCCN1C(=O)[C@@H](NC(=O)[C@H](C)NC)C1CCCCC1)C(c1ccccc1)c1ccccc1)C(c1ccccc1)c1ccccc1)C1CCCCC1` [BV6, reference compound] (I: H-[NMeA][Chg]P[Dip] / II: H-[NMeA][Chg]P[Dip]; linker I:C-II:C via Hexamethylenediamine), the “cell death on BV6 treatment” value ([3]; deletion of MFNs) was “sensitized cells to BV6 treatment”.
With `Cc1cccc(NC(C)c2cccc(Cl)c2)c1C` (stereo not shown) [MFI26] the “binding to the HR2 domain of MFN2” value [1] was “did not demonstrate measurable binding” and the “mitochondrial aspect ratio / mitochondrial fragmentation” value [4] was “detrimental for the activity”.
In the case of `Cc1oncc1C(=O)Nc1ccc(C(F)(F)F)cc1` [Leflunomide], the MFNs protein levels [5] is given as “alters MFNs protein levels through loss of pyrimidine synthesis”.
For `Cc1cccc(NC(=O)c2cc(Cl)cc(-c3ccccn3)c2O)c1C` [MFI43], the “half life (t½)” value [6] was “increased half life” and the pIC50 ([4]; Mus musculus, 6 h, read-out: IC50 (decrease of Mito AR)) was 5.75.
